# Results as given in PMC7617459, “Comparative Evaluation and Profiling of Chemical Tools for the Nuclear Hormone Receptor Family 2” (ACS pharmacology & translational science, 2025).
# Columns and labels:
# TR4 = target: T1, TR4 (Homo sapiens, UniProt P49116); experiment: Gal4-hybrid reporter gene assay TR4; type: cell-based; conditions: 1 µM
# T1 construct: encoding the hinge region and the LBD of the canonical isoform of the respective human nuclear receptors; expressed in transfected cells; host or cells: HEK293T
# Description: (§1) Gal4-hybrid reporter gene assays were performed as described previously using the plasmids pFA-CMV-hTHRα-LBD,[170] pFA-CMV-hRARα-LBD,[171] pFA-CMV-hPPARα-LBD,[172] pFA-CMV-hPPARγ-LBD,[172] pFA-CMV-hPPARδ-LBD,[172] pFA-CMV-revERBα-LBD,[158] pFA-CMV-hRORα-LBD,[173] pFA-CMV-hLXRα-LBD,[118] pFA-CMV-hFXR-LBD,[174] pFA-CMV-hVDR-LBD,[171] pFA-CMV-hCAR-LBD,[171] pFA-CMV-hHNF4α-LBD,[110] pFA-CMV-hRXRα-LBD,[175] pFA-CMV-hTR2-LBD,[102] pFA-CMV-hTR4-LBD,[102] pFA-CMV-hTLX-LBD,[102] pFA-CMV-hNR2E3-LBD,[102] pFA-CMV-hNur77-LBD,[176] pFA-CMV-hSF1-LBD[158] encoding the hinge region and the LBD of the canonical isoform of the respective human nuclear receptors. pFR-Luc (Stratagene, La Jolla, CA, USA) was used as a reporter plasmid, and pRL-SV40 (Promega, Madison, WI, USA) was used for normalization of transfection efficiency and cell growth. […] After 16 h incubation, luciferase activity was measured using the Dual-Glo Luciferase Assay System (Promega) according to the manufacturer’s protocol on a Tecan Spark luminometer (Tecan Deutschland GmbH, Crailsheim, Germany). Firefly luminescence was divided by Renilla luminescence and multiplied by 1000 resulting in relative light units (RLUs) to normalize for transfection efficiency and cell growth. […] Antagonistic effects were evaluated by coincubation of the test compound with the respective reference ligand.
# RXRα [1] = conditions: reporter gene assay; read-out: RXRα cellular activity/potency; cited from earlier work
# RXRγ = conditions: reporter gene assay; read-out: RXRγ cellular activity/potency; cited from earlier work
# RXRβ = conditions: reporter gene assay; read-out: RXRβ cellular activity/potency; cited from earlier work
# TR2 = target: T2, TR2 (Homo sapiens, UniProt P13056); experiment: Gal4-hybrid reporter gene assay TR2; type: cell-based; conditions: 1 µM
# T2 construct: encoding the hinge region and the LBD of the canonical isoform of the respective human nuclear receptors; expressed in transfected cells; host or cells: HEK293T
# Description: as §1
# RXRα [2] = target: T3, RXRα (Homo sapiens, UniProt P19793); experiment: Gal4-hybrid reporter gene assay RXRα; conditions: 1 µM
# T3 sequence (P19793 227-458 limits assumed): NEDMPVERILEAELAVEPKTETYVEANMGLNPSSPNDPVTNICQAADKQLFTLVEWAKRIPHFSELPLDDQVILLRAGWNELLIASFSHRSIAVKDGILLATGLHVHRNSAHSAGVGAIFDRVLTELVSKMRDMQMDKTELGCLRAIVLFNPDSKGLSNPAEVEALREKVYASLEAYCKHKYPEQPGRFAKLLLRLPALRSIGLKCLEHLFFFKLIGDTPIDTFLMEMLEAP
# PNR (NR2E3) = target: T4, PNR (NR2E3) (Homo sapiens, UniProt Q9Y5X4); experiment: Gal4-hybrid reporter gene assay PNR; type: cell-based; conditions: selected test concentration (Figure 3)
# T4 construct: encoding the hinge region and the LBD of the canonical isoform of the respective human nuclear receptors; expressed in transfected cells; host or cells: HEK293T
# T4 sequence (Q9Y5X4 169-410 limits assumed): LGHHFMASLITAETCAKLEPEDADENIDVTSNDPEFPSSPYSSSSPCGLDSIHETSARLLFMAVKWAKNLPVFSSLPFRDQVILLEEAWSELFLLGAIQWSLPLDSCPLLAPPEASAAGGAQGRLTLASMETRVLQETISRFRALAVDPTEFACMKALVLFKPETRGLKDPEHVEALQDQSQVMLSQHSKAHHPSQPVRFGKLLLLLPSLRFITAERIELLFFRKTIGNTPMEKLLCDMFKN
# Description: Gal4-hybrid reporter gene assays were performed as described previously using the plasmids pFA-CMV-hTHRα-LBD,[170] pFA-CMV-hRARα-LBD,[171] pFA-CMV-hPPARα-LBD,[172] pFA-CMV-hPPARγ-LBD,[172] pFA-CMV-hPPARδ-LBD,[172] pFA-CMV-revERBα-LBD,[158] pFA-CMV-hRORα-LBD,[173] pFA-CMV-hLXRα-LBD,[118] pFA-CMV-hFXR-LBD,[174] pFA-CMV-hVDR-LBD,[171] pFA-CMV-hCAR-LBD,[171] pFA-CMV-hHNF4α-LBD,[110] pFA-CMV-hRXRα-LBD,[175] pFA-CMV-hTR2-LBD,[102] pFA-CMV-hTR4-LBD,[102] pFA-CMV-hTLX-LBD,[102] pFA-CMV-hNR2E3-LBD,[102] pFA-CMV-hNur77-LBD,[176] pFA-CMV-hSF1-LBD[158] encoding the hinge region and the LBD of the canonical isoform of the respective human nuclear receptors. pFR-Luc (Stratagene, La Jolla, CA, USA) was used as a reporter plasmid, and pRL-SV40 (Promega, Madison, WI, USA) was used for normalization of transfection efficiency and cell growth. HEK293T cells (German Collection of Microorganisms and Cell Culture GmbH, DSMZ) were cultured in Dulbecco’s modified Eagle’s medium (DMEM), high glucose supplemented with 10% fetal calf serum (FCS), sodium pyruvate (1 mM), penicillin (100 U/mL), and streptomycin (100 μg/mL) at 37 °C and 5% CO2 and seeded in 96-well plates (3 × 10^4 cells/well). The medium was changed to Opti-MEM without supplements, and the cells were transiently transfected with one pFA-CMV-hNR-LBD clone, pFR-Luc, and pRL-SV40 using Lipofectamine LTX reagent (Invitrogen, Thermo Fisher Scientific) according to the manufacturer’s instructions. Five hours after transfection, cells were incubated with the test compounds in Opti-MEM supplemented with penicillin (100 U/mL), streptomycin (100 μg/mL), and 0.1% DMSO. Each sample was set up in duplicates and tested in at least three independent experiments. After 16 h incubation, luciferase activity was measured using the Dual-Glo Luciferase Assay System (Promega) according to the manufacturer’s protocol on a Tecan Spark luminometer (Tecan Deutschland GmbH, Crailsheim, Germany). Firefly luminescence was divided by Renilla luminescence and multiplied by 1000 resulting in relative light units (RLUs) to normalize for transfection efficiency and cell growth. Fold activation was obtained by dividing the mean RLU of the test compound by the mean^a RLU of the untreated control, and relative activation was calculated by dividing the fold activation of a test sample by the fold activation of the respective reference agonist. Antagonistic effects were evaluated by coincubation of the test compound with the respective reference ligand.
# RARs and RXRs = tested on: RARs and RXRs; set-up: method as in PMID 32763139; conditions: cited from earlier work
# full-length TLX = conditions: reporter gene assay; read-out: IC50 (second value of cell; full-length TLX); cited from earlier work
# HEK293T cells = conditions: cited from earlier work
# TLX LBD = conditions: FP assay, cited from earlier work
# RARα = RARα (Homo sapiens, UniProt P10276); conditions: selected test concentration (Figure 3)
# Description: HEK293T cells (German Collection of Microorganisms and Cell Culture GmbH, DSMZ) were cultured in Dulbecco’s modified Eagle’s medium (DMEM), high glucose supplemented with 10% fetal calf serum (FCS), sodium pyruvate (1 mM), penicillin (100 U/mL), and streptomycin (100 μg/mL) at 37 °C and 5% CO2 and seeded in 96-well plates (3 × 10^4 cells/well). The medium was changed to Opti-MEM without supplements, and the cells were transiently transfected with one pFA-CMV-hNR-LBD clone, pFR-Luc, and pRL-SV40 using Lipofectamine LTX reagent (Invitrogen, Thermo Fisher Scientific) according to the manufacturer’s instructions. […] After 16 h incubation, luciferase activity was measured using the Dual-Glo Luciferase Assay System (Promega) according to the manufacturer’s protocol on a Tecan Spark luminometer (Tecan Deutschland GmbH, Crailsheim, Germany). Firefly luminescence was divided by Renilla luminescence and multiplied by 1000 resulting in relative light units (RLUs) to normalize for transfection efficiency and cell growth. Fold activation was obtained by dividing the mean RLU of the test compound by the mean^a RLU of the untreated control, and relative activation was calculated by dividing the fold activation of a test sample by the fold activation of the respective reference agonist. Antagonistic effects were evaluated by coincubation of the test compound with the respective reference ligand.
# TLX [3] = target: T5, TLX (Homo sapiens, UniProt Q9Y466); experiment: Gal4-hybrid reporter gene assay TLX; type: cell-based; conditions: selected test concentration (Figure 3)
# T5 construct: encoding the hinge region and the LBD of the canonical isoform of the respective human nuclear receptors; expressed in transfected cells; host or cells: HEK293T
# TLX [4] = conditions: reporter gene assay; read-out: IC50 (first value of cell; TLX/Gal4); cited from earlier work
# T2 sequence (P13056 348-590 limits assumed): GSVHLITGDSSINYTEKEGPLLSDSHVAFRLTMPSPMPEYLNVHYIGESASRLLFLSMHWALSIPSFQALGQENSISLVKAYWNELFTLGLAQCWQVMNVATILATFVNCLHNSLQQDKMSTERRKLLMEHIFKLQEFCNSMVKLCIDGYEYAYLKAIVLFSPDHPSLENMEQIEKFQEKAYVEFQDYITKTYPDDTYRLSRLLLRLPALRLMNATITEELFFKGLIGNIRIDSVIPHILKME
# T1 sequence (P49116 341-583 limits assumed): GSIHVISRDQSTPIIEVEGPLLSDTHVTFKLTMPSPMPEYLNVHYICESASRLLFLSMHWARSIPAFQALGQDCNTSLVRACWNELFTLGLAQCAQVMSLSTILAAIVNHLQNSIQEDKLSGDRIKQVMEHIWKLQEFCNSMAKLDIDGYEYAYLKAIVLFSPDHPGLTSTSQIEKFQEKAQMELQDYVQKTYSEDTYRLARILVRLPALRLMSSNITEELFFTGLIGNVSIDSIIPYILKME
# Chain of RARα (P10276 183-417 limits assumed): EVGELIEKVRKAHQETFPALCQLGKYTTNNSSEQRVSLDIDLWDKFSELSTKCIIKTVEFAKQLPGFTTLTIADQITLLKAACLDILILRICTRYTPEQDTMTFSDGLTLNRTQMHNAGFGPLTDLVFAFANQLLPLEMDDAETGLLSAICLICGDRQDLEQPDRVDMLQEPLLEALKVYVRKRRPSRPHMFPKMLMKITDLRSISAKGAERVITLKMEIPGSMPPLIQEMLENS
# T5 sequence (Q9Y466 155-383 limits assumed): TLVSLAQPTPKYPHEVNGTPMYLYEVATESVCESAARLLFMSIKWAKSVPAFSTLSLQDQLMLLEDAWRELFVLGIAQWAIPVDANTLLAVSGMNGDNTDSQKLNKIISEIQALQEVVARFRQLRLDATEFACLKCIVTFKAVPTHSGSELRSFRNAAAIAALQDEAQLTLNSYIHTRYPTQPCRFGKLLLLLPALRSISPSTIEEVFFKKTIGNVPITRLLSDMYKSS
Structure (SMILES),TR4 off-target activity (TR4),EC50 (RXRα [1]),EC50 (RXRγ),EC50 (RXRβ),TR2 off-target activity (TR2),RXR activation (RXRα [2]),PNR modulation (PNR (NR2E3)),activity on RARs and RXRs (RARs and RXRs),IC50 (full-length TLX),toxicity in HEK293T cells used for the reporter gene assays (HEK293T cells),effect on atrophin binding to TLX LBD (TLX LBD),Kd (TLX LBD; no precise value reported),RAR activation (RARα),TLX modulation (TLX [3]),IC50 (TLX [4])
CC1(C)CCC(C)(C)c2cc(C3(c4ccc(C(=O)O)cc4)OCCO3)ccc21 [compound 11],off-target activities,29 nM,232 nM,98 nM,off-target activities,strong RXR activation,off-target activities,–,–,–,–,–,–,–,–
CC1(C)CC=C(c2ccccc2)c2cc(/C=C/c3ccc(C(=O)O)cc3)ccc21 [compound 17],–,–,–,–,–,–,–,agonism on RARs and RXRs,159 nM,pronounced toxicity,displacement of atrophin,~1000 nM,activated RAR,not observed,367 nM
